According to patent publication US20250019648A1, “A SPERM EXTENDER MEDIUM” (MEAT & LIVESTOCK AUSTRALIA LIMITED, priority 2021, published 2025):

Columns and labels:
[1] = tested on: bovine spermatozoa; assay: Fungicide comparison on bovine sperm motility; assay type: cell-based; conditions: Nystatin 100 U/mL, Fluconazole 12.5 mg/L and 25 mg/L; 1, 3, 7, 10 and 14 days at RT in glycine (82.2 mM) medium
Excerpt: Sperm motility was objectively determined with computer assisted sperm analysis (CASA; IVOS, Hamilton Thorne, Danvers, MA) using the following settings; negative phase-contrast optics, recording rate of 60 frames/s, minimum contrast of 70, minimum cell size of 4 pixels, low size gate of 0.17, high size gate of 2.9, low intensity gate of 0.6, high intensity gate of 1.74, non-motile head size of 10 pixels, non-motile head intensity of 135, progressive VAP threshold of 50 μm/s, slow (static) cells VAP threshold of 20 μm/s, slow (static) cells VSL threshold of 0 μm/s and threshold STR of 75%. […] Cells with a VAP greater than that of the mean VAP of progressive cells were considered ‘rapid’. A minimum of 200 spermatozoa in a minimum of five fields were assessed using 20 μm Leja standard count slides (Gytech, Australia) and a stage temperature of 37° C. […]
Semen was collected, processed and stored according as above (Example 2, Section 1.1). Following 1, 3, 7, 10 and 14 days of storage at RT in the base extender solution as described (Example 2, Experiment 2) supplemented with glycine to a final concentration of 82.2 mM (pH of the medium was 7.9), sperm motility was assessed using CASA as above. Data were analysed using JMP v14 software (ANOVA).

[2] = tested on: bovine spermatozoa; assay: Effects of medium components on bovine sperm motility after 24 hours at RT (Experiment 2); assay type: cell-based; conditions: for total and progressive motilities when 50% of the NaCl was replaced: L-carnitine 100 mM or choline chloride 95 mM; for effect on sperm motility at the 24 h mark as determined by CASA: field conditions, rosiglitazone 0-100 μM, sugar source, coenzyme Q10
Excerpt: Institutional and New South Wales State Government ethical approval was secured for the use of animal material in this study. This research was based on ejaculates from 17 normozoospermic Angus bulls (between 3 and 7 years of age) of proven fertility, held on institutionally-approved premises at Charles Sturt University ([…], Australia). Semen was collected via electro-ejaculation, and the ejaculate was either left undiluted (Experiment 1) or was immediately diluted (2:1; extender:semen) with INRA96 (Experiments 2 and 3-Sections 2 and 3). […] Equipment and extender medium were maintained at temperatures between 30° C. and 37° C. for the duration of semen collection and dilution. The tubes of extended semen were then held in the laboratory at RT (approx. 20 to 25° C.) for up to 30 min prior to further processing. For Experiment 1, up to 6 mL of the extended semen was either centrifuged directly (700×g for 10 min), or was overlaid on top of BoviPureTM gradient and centrifuged at 700×g for 20 min, and for Experiments 2 and 3 up to 5 mL extended semen was layered on top of PercollTM gradients and centrifuged at 700×g for 30 min. Following centrifugation, the seminal plasma and density gradient media were removed and discarded. Spermatozoa were recovered from the base of the tubes, resuspended in 2 mL BWW and washed via centrifugation (500×g for 5 min) with BWW. These pelleted cells were then resuspended at a concentration of 50×10^6 spermatozoa/mL in the experimental extender media. Sperm motility was objectively determined with computer assisted sperm analysis (CASA; IVOS, Hamilton Thorne, Danvers, MA) using the following settings; negative phase-contrast optics, recording rate of 60 frames/s, minimum contrast of 70, minimum cell size of 4 pixels, low size gate of 0.17, high size gate of 2.9, low intensity gate of 0.6, high intensity gate of 1.74, non-motile head size of 10 pixels, non-motile head intensity of 135, progressive VAP threshold of 50 μm/s, slow (static) cells VAP threshold of 20 μm/s, slow (static) cells VSL threshold of 0 μm/s and threshold STR of 75%. […] Cells with a VAP greater than that of the mean VAP of progressive cells were considered 'rapid'. A minimum of 200 spermatozoa in a minimum of five fields were assessed using 20 μm Leja standard count slides ([…], Australia) and a stage temperature of 37° C.

[3] = Lide, Handbook of Chemistry and Physics, 72nd Edition; cited from earlier work
[4] = tested on: bovine spermatozoa; assay: Comparison of amino acid osmolytes on bovine sperm motility during liquid storage at RT; assay type: cell-based; conditions: for total and progressive motilities compared with other osmolyte treatments: Part 1, 7 days storage at RT, n=10 bulls; for total and progressive motilities compared with other osmolyte treatments / motility by day 14 of storage / loss in motility between 3 and 10 days of storage: 82.2 mM in base solution without NaCl; for motility by day 14 of storage / loss in motility between 3 and 10 days of storage / motility compared with NaCl and choline chloride controls: Part 2; for motility by day 14 of storage / loss in motility between 3 and 10 days of storage: RT; for loss in motility between 3 and 10 days of storage: n=9 bulls; for motility compared with NaCl and choline chloride controls: all time points (3, 7, 10, 14 days) at RT; for capability to prolong bovine sperm motility at room temperature: amino acid as osmolyte in extender medium
Excerpt: Sperm motility was objectively determined with computer assisted sperm analysis (CASA; IVOS, Hamilton Thorne, Danvers, MA) using the following settings; negative phase-contrast optics, recording rate of 60 frames/s, minimum contrast of 70, minimum cell size of 4 pixels, low size gate of 0.17, high size gate of 2.9, low intensity gate of 0.6, high intensity gate of 1.74, non-motile head size of 10 pixels, non-motile head intensity of 135, progressive VAP threshold of 50 μm/s, slow (static) cells VAP threshold of 20 μm/s, slow (static) cells VSL threshold of 0 μm/s and threshold STR of 75%. […] Cells with a VAP greater than that of the mean VAP of progressive cells were considered ‘rapid’. A minimum of 200 spermatozoa in a minimum of five fields were assessed using 20 μm Leja standard count slides (Gytech, Australia) and a stage temperature of 37° C.
Bull semen (animals were housed at Charles Sturt University, Wagga Wagga, NSW, Australia) was collected via electroejaculation, immediately diluted 2:1 (extender:semen) with equine INRA96™ semen extender, and maintained at room temperature (RT) before further processing. Extended semen was then layered onto a discontinuous (45/90%) Percoll™ gradient and centrifuged at 700×g for 30 min to isolate high quality spermatozoa to be used for storage experiments described below. The high-quality pelleted spermatozoa were then resuspended in modified Biggers, Whitter and Whittingham (BWW) medium (Gibb et al., 2014) and washed again via centrifugation (300×g for 5 min). Pelleted spermatozoa were then resuspended in the various formulations described in each experiment, and stored in 5 mL Sarstedt specimen pots at RT (21-23° C.) in the dark until they were assessed.
This study was undertaken in 2 parts: the first was a screening of soluble amino acids (spermatozoa from split ejaculates of n=10 bulls), and the second was to confirm the results of the first part using only the most successful 3 amino acids (spermatozoa from split ejaculates of n=9 bulls). Sodium chloride and choline chloride were used as osmolyte controls.
The base bovine extender solution described above (Example 1, Experiment 3) was utilised for the purposes of these evaluations, with the exception that the 41.1 mM NaCl was not included in the base solution to which either the test amino acid or choline chlorine was added. Test amino acid was added to the base solution to a final concentration of 82.2 mM whilst the controls contained either the NaCl or choline chloride to a final concentration of 41.1 mM. The initial pH of solutions varied between 7-10 and were adjusted to be between 7.5 and 8.0 with either KOH or HCl. All test media were supplemented with 100 U/ml Nystatin to control fungal growth. Sperm motility was assessed as per Example 1.
For Part 1 of the study, motility was evaluated following 7 days liquid storage at room temperature (RT). Motility of spermatozoa was evaluated at 3, 7, 10 and 14 days liquid storage at RT for Part 2 of the study. Data were again analysed using JMP v14 software (ANOVA).

OC(Cn1cncn1)(Cn1cncn1)c1ccc(F)cc1F [Fluconazole]
difference in sperm motility between antifungal treatments and control with no antifungal [1]: No significant differences

C[N+](C)(C)C[C@H](O)CC(=O)[O-] [L-carnitine]
total and progressive motilities when 50% of the NaCl was replaced ([2]; 24 hours at RT): improved

CC(=O)C(=O)[O-].[Na+] [Sodium pyruvate]
difference in sperm motility versus absence of the component ([2]; 0.275 mM to 20 mM, 24 hours at RT): No significant difference

C[C@H](N)C(=O)O [alanine]
isoelectric point (pI) [3]: 6.0 | total and progressive motilities compared with other osmolyte treatments [4]: significantly higher than all other treatments | motility by day 14 of storage [4]: significantly declined | loss in motility between 3 and 10 days of storage [4]: did not suffer any significant loss in motility | motility compared with NaCl and choline chloride controls [4]: significantly higher than both of the controls

C[N+](C)(C)CCO.[Cl-] [choline chloride, reference compound]
total and progressive motilities when 50% of the NaCl was replaced ([2]; 24 hours at RT): improved

COC1=C(OC)C(=O)C(C/C=C(\C)CC/C=C(\C)CC/C=C(\C)CC/C=C(\C)CC/C=C(\C)CC/C=C(\C)CC/C=C(\C)CC/C=C(\C)CC/C=C(\C)CCC=C(C)C)=C(C)C1=O [coenzyme Q10]
effect on sperm motility at the 24 h mark as determined by CASA [2]: No significant effects

N[C@@H](CS)C(=O)O [cysteine]
isoelectric point (pI) [3]: 5.07 | capability to prolong bovine sperm motility at room temperature [4]: no or only relatively limited capability

O=C(CO)[C@@H](O)[C@H](O)[C@H](O)CO [fructose]
effect on sperm motility at the 24 h mark as determined by CASA [2]: No significant effects

NCC(=O)O [glycine]
isoelectric point (pI) [3]: 5.97 | total and progressive motilities compared with other osmolyte treatments [4]: significantly higher than all other treatments | motility by day 14 of storage [4]: significantly declined | loss in motility between 3 and 10 days of storage [4]: did not suffer any significant loss in motility | motility compared with NaCl and choline chloride controls [4]: significantly higher than both of the controls

CC[C@H](C)[C@H](N)C(=O)O [isoleucine]
isoelectric point (pI) [3]: 6.02 | capability to prolong bovine sperm motility at room temperature [4]: no or only relatively limited capability

CC(C)C[C@H](N)C(=O)O [leucine]
capability to prolong bovine sperm motility at room temperature [4]: no or only relatively limited capability

CSCC[C@H](N)C(=O)O [methionine]
isoelectric point (pI) [3]: 5.74 | capability to prolong bovine sperm motility at room temperature [4]: no or only relatively limited capability

N[C@@H](Cc1ccccc1)C(=O)O [phenylalanine]
isoelectric point (pI) [3]: 5.48 | capability to prolong bovine sperm motility at room temperature [4]: no or only relatively limited capability

O=C(O)[C@@H]1CCCN1 [proline]
isoelectric point (pI) [3]: 6.3 | capability to prolong bovine sperm motility at room temperature [4]: no or only relatively limited capability

OC[C@H]1O[C@H](OC[C@H]2O[C@H](O[C@]3(CO)O[C@H](CO)[C@@H](O)[C@@H]3O)[C@H](O)[C@@H](O)[C@@H]2O)[C@H](O)[C@@H](O)[C@H]1O [raffinose]
effect on sperm motility at the 24 h mark as determined by CASA [2]: No significant effects

OC[C@H]1O[C@@](CO)(O[C@H]2O[C@H](CO)[C@@H](O)[C@H](O)[C@H]2O)[C@@H](O)[C@@H]1O [sucrose]
effect on sperm motility at the 24 h mark as determined by CASA [2]: No significant effects

NCCS(=O)(=O)O [taurine, 2-aminoethane-1-sulfonic acid]
total and progressive motilities compared with other osmolyte treatments [4]: significantly higher than all other treatments | total and progressive motility, taurine compared with valine ([4]; day 3 of liquid storage): better total and progressive motility

N[C@@H](Cc1c[nH]c2ccccc12)C(=O)O [tryptophan]
isoelectric point (pI) [3]: 5.89 | capability to prolong bovine sperm motility at room temperature [4]: no or only relatively limited capability

CC(C)[C@H](N)C(=O)O [valine]
isoelectric point (pI) [3]: 5.96 | total and progressive motilities compared with other osmolyte treatments [4]: substantially better | motility by day 14 of storage [4]: significantly declined | loss in motility between 3 and 10 days of storage [4]: did not suffer any significant loss in motility | motility compared with NaCl and choline chloride controls [4]: significantly higher than both of the controls | motility, valine compared with taurine ([4]; day 14 of liquid storage, data not shown): better motility
